From ChEMBL document CHEMBL4507284, “Data for DCP probe BI-1230” (2021)
Calls of active or inactive are those of the source. No cut-off for these calls is given here.

Experiments:
[1] = molecular target: Insulin-like growth factor 1 receptor (Homo sapiens) (UniProt P08069); conditions: Compound concentration 1000.0 nM
[2] = molecular target: Muscle, skeletal receptor tyrosine-protein kinase (Homo sapiens) (UniProt O15146); conditions: Compound concentration 1000.0 nM
[3] = molecular target: Receptor tyrosine-protein kinase erbB-2 (Homo sapiens) (UniProt P04626); conditions: Compound concentration 1000.0 nM
[4] = molecular target: Serine/threonine-protein kinase 32C (Homo sapiens) (UniProt Q86UX6); conditions: Compound concentration 1000.0 nM
[5] = molecular target: Serine/threonine-protein kinase TAO2 (Homo sapiens) (UniProt Q9UL54); conditions: Compound concentration 1000.0 nM
[6] = molecular target: Serine/threonine-protein kinase PAK 3 (Homo sapiens) (UniProt O75914); conditions: Compound concentration 1000.0 nM
[7] = molecular target: Serine/threonine-protein kinase 17B (Homo sapiens) (UniProt O94768); conditions: Compound concentration 1000.0 nM
[8] = molecular target: Serine/threonine-protein kinase 38 (Homo sapiens) (UniProt Q15208); conditions: Compound concentration 1000.0 nM
[9] = molecular target: Protein kinase C epsilon type (Homo sapiens) (UniProt Q02156); conditions: Compound concentration 1000.0 nM
[10] = molecular target: Serine/threonine-protein kinase Nek10 (Homo sapiens) (UniProt Q6ZWH5); conditions: Compound concentration 1000.0 nM
[11] = molecular target: Tyrosine-protein kinase ABL1 (Homo sapiens) (UniProt P00519); conditions: Compound concentration 1000.0 nM
[12] = test system: Mast/stem cell growth factor receptor Kit (Homo sapiens), P10721 [V559D]; conditions: Compound concentration 1000.0 nM
[13] = molecular target: Casein kinase I isoform gamma-1 (Homo sapiens) (UniProt Q9HCP0); conditions: Compound concentration 1000.0 nM
[14] = molecular target: Sigma intracellular receptor 2 (Homo sapiens) (UniProt Q5BJF2); conditions: Compound concentration 10.0 uM
[15] = molecular target: Mitogen-activated protein kinase 1 (Homo sapiens) (UniProt P28482); conditions: Compound concentration 1000.0 nM
[16] = molecular target: Myosin light chain kinase (Homo sapiens) (UniProt Q32MK0); conditions: Compound concentration 1000.0 nM
[17] = molecular target: Homeodomain-interacting protein kinase 2 (Homo sapiens) (UniProt Q9H2X6); conditions: Compound concentration 1000.0 nM
[18] = molecular target: Serine/threonine-protein kinase Nek3 (Homo sapiens) (UniProt P51956); conditions: Compound concentration 1000.0 nM
[19] = test system: Tyrosine-protein kinase ABL1 (Homo sapiens), P00519 [F317I]; conditions: Compound concentration 1000.0 nM
[20] = test system: Epidermal growth factor receptor (Homo sapiens), P00533 [G719S]; conditions: Compound concentration 1000.0 nM
[21] = molecular target: Atypical kinase COQ8A, mitochondrial (Homo sapiens) (UniProt Q8NI60); conditions: Compound concentration 1000.0 nM
[22] = molecular target: Muscarinic acetylcholine receptor M2 (Homo sapiens) (UniProt P08172); conditions: Compound concentration 10.0 uM
[23] = molecular target: Serine/threonine-protein kinase VRK2 (Homo sapiens) (UniProt Q86Y07); conditions: Compound concentration 1000.0 nM
[24] = molecular target: Focal adhesion kinase 1 (Homo sapiens) (UniProt Q05397); conditions: Compound concentration 1000.0 nM
[25] = molecular target: Interleukin-1 receptor-associated kinase 4 (Homo sapiens) (UniProt Q9NWZ3); conditions: Compound concentration 1000.0 nM
[26] = molecular target: Mu-type opioid receptor (Homo sapiens) (UniProt P35372); conditions: Compound concentration 10.0 uM
[27] = molecular target: Mitogen-activated protein kinase 14 (Homo sapiens) (UniProt Q16539); conditions: Compound concentration 1000.0 nM
[28] = molecular target: Leucine-rich repeat serine/threonine-protein kinase 2 (Homo sapiens) (UniProt Q5S007); conditions: Compound concentration 1000.0 nM
[29] = test system: Mast/stem cell growth factor receptor Kit (Homo sapiens), P10721 [L576P]; conditions: Compound concentration 1000.0 nM
[30] = molecular target: Myotonin-protein kinase (Homo sapiens) (UniProt Q09013); conditions: Compound concentration 1000.0 nM
[31] = molecular target: Cyclin-dependent kinase 19 (Homo sapiens) (UniProt Q9BWU1); conditions: Compound concentration 1000.0 nM
[32] = molecular target: Ephrin type-A receptor 7 (Homo sapiens) (UniProt Q15375); conditions: Compound concentration 1000.0 nM
[33] = molecular target: Rhodopsin kinase GRK7 (Homo sapiens) (UniProt Q8WTQ7); conditions: Compound concentration 1000.0 nM
[34] = test system: Proto-oncogene tyrosine-protein kinase receptor Ret (Homo sapiens), P07949 [V804M]; conditions: Compound concentration 1000.0 nM
[35] = molecular target: Angiopoietin-1 receptor (Homo sapiens) (UniProt Q02763); conditions: Compound concentration 1000.0 nM
[36] = molecular target: RAC-gamma serine/threonine-protein kinase (Homo sapiens) (UniProt Q9Y243); conditions: Compound concentration 1000.0 nM
[37] = molecular target: Activin receptor type-1 (Homo sapiens) (UniProt Q04771); conditions: Compound concentration 1000.0 nM
[38] = molecular target: Serine/threonine-protein kinase Sgk3 (Homo sapiens) (UniProt Q96BR1); conditions: Compound concentration 1000.0 nM
[39] = molecular target: Macrophage colony-stimulating factor 1 receptor (Homo sapiens) (UniProt P07333); conditions: Compound concentration 1000.0 nM
[40] = molecular target: Serine/threonine-protein kinase Nek4 (Homo sapiens) (UniProt P51957); conditions: Compound concentration 1000.0 nM
[41] = molecular target: Serine/threonine-protein kinase Nek6 (Homo sapiens) (UniProt Q9HC98); conditions: Compound concentration 1000.0 nM
[42] = molecular target: Mitogen-activated protein kinase 8 (Homo sapiens) (UniProt P45983); conditions: Compound concentration 1000.0 nM
NS3 protease = NS3 protease (Hepacivirus C, UniProt C1KIQ2); assay: Enzymatic assay; parameters: species or system Hepacivirus hominis
[43] = molecular target: Serine/threonine-protein kinase OSR1 (Homo sapiens) (UniProt O95747); conditions: Compound concentration 1000.0 nM
[44] = molecular target: SRSF protein kinase 2 (Homo sapiens) (UniProt P78362); conditions: Compound concentration 1000.0 nM
[45] = molecular target: Cyclin-dependent kinase 2 homolog (Plasmodium falciparum (isolate 3D7)) (UniProt P61075); conditions: Compound concentration 1000.0 nM
Sequence of Cyclin-dependent kinase 2 homolog (Plasmodium falciparum (isolate 3D7)) (P61075 whole entry): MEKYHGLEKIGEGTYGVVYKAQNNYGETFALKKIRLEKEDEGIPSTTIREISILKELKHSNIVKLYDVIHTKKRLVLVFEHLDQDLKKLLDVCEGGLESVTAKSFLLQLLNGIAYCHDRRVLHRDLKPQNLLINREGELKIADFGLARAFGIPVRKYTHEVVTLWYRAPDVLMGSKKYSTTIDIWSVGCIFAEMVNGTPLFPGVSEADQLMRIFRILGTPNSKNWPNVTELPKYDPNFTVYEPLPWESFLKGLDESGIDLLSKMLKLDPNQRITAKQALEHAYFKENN

Sequence of Serine/threonine-protein kinase PAK 3 (Homo sapiens) (O75914 whole entry, looked up): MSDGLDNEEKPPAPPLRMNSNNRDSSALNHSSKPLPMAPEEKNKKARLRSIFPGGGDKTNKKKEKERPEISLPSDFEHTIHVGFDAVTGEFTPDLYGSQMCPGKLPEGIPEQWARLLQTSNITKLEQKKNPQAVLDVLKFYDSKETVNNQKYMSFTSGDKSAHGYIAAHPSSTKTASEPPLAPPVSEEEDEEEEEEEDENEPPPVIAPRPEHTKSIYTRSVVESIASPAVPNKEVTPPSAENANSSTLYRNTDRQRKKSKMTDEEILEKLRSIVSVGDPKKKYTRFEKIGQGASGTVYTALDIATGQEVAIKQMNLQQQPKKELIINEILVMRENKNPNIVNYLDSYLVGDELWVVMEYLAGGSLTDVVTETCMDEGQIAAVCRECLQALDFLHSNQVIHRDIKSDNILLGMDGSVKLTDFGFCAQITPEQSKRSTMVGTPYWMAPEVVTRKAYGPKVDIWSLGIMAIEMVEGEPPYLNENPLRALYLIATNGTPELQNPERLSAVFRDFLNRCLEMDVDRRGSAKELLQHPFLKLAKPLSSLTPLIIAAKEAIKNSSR
Sequence of Serine/threonine-protein kinase Nek6 (Homo sapiens) (Q9HC98 whole entry): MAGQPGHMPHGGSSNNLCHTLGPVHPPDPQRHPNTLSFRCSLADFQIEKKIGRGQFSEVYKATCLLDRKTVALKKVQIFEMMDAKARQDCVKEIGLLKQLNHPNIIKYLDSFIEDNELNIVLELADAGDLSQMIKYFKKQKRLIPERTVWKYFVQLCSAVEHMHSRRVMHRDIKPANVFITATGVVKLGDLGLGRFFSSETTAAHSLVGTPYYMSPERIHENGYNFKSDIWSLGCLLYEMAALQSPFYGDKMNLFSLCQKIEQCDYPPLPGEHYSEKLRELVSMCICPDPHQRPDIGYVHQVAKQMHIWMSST
Sequence of Serine/threonine-protein kinase 17B (Homo sapiens) (O94768 whole entry): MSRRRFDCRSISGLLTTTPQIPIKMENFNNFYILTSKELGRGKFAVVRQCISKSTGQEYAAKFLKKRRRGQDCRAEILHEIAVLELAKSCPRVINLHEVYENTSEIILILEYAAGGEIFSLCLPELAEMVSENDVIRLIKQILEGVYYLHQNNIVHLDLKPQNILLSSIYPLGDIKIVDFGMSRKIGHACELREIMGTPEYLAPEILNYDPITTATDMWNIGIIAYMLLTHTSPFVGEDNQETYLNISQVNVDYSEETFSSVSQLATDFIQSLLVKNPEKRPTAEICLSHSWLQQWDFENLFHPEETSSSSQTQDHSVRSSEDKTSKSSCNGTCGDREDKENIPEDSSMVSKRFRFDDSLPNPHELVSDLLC
Sequence of Mitogen-activated protein kinase 8 (Homo sapiens) (P45983 whole entry): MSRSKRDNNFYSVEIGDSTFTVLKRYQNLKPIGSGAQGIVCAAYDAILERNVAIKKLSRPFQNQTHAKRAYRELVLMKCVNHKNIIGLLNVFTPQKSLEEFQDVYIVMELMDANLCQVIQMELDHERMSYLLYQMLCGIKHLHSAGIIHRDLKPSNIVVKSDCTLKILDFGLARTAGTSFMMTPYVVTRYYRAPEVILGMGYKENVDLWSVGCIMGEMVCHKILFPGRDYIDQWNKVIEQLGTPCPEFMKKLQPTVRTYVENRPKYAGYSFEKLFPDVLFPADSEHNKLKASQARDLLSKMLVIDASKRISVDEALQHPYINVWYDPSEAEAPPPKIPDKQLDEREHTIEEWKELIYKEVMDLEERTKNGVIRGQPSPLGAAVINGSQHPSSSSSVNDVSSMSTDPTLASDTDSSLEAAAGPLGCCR
Sequence of Ephrin type-A receptor 7 (Homo sapiens) (Q15375 28-998 limits assumed): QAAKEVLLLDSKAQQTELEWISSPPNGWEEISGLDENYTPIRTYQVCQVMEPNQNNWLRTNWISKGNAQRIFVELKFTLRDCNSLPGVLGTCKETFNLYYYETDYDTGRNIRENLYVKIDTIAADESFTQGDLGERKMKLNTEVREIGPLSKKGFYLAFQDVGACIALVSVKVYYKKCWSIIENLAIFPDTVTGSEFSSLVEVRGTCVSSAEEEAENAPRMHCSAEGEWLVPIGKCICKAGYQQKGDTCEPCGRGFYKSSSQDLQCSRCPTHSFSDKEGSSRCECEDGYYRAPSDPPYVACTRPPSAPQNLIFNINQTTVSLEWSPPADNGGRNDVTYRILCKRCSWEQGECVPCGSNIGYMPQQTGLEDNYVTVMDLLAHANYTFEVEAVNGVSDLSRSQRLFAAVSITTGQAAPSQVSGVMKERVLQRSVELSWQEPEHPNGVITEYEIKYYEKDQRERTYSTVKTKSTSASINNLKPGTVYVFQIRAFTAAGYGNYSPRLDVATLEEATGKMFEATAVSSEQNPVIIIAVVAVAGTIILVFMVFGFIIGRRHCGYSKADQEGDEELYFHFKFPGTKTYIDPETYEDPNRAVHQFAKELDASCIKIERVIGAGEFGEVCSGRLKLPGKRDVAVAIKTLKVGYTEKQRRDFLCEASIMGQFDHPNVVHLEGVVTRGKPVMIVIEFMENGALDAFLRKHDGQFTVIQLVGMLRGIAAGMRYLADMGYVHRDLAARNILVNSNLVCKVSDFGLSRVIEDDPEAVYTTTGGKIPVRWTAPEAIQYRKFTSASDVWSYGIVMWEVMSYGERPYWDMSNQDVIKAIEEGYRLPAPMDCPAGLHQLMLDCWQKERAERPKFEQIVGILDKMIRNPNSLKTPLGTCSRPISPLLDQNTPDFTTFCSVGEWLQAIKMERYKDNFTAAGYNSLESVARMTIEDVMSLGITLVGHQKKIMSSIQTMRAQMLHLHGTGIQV
Sequence of Serine/threonine-protein kinase TAO2 (Homo sapiens) (Q9UL54 whole entry): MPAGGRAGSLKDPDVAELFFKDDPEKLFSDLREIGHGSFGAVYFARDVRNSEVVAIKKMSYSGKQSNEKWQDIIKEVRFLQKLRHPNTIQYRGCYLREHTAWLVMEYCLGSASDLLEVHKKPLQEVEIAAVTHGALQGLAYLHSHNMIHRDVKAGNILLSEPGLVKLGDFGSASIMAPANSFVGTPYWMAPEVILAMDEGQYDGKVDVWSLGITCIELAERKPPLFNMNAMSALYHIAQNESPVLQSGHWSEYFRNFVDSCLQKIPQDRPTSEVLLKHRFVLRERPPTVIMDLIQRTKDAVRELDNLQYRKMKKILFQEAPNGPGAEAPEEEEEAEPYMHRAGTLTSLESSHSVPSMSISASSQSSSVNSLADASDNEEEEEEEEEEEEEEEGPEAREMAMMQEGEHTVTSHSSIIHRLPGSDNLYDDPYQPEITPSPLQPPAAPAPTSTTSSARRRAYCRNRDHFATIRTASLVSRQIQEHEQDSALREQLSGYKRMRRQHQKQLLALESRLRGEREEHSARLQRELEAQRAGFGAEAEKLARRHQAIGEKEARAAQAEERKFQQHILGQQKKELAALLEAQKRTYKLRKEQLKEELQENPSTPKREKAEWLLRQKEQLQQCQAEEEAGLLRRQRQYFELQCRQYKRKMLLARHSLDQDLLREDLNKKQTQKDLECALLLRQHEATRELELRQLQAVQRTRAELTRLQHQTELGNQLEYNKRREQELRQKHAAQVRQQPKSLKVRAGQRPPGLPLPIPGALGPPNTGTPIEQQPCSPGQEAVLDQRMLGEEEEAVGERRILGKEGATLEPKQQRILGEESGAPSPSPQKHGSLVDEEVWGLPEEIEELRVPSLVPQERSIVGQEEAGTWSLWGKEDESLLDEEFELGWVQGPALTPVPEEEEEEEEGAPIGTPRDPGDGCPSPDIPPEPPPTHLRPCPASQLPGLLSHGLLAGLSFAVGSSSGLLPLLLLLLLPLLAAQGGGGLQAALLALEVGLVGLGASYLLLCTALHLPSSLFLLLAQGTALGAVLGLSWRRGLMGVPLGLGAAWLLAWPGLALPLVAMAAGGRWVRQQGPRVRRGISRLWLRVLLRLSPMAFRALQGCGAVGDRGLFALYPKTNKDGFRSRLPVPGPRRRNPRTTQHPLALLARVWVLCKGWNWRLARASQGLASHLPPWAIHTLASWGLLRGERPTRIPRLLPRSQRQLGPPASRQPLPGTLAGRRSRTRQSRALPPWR
Sequence of Serine/threonine-protein kinase Nek4 (Homo sapiens) (P51957 whole entry, looked up): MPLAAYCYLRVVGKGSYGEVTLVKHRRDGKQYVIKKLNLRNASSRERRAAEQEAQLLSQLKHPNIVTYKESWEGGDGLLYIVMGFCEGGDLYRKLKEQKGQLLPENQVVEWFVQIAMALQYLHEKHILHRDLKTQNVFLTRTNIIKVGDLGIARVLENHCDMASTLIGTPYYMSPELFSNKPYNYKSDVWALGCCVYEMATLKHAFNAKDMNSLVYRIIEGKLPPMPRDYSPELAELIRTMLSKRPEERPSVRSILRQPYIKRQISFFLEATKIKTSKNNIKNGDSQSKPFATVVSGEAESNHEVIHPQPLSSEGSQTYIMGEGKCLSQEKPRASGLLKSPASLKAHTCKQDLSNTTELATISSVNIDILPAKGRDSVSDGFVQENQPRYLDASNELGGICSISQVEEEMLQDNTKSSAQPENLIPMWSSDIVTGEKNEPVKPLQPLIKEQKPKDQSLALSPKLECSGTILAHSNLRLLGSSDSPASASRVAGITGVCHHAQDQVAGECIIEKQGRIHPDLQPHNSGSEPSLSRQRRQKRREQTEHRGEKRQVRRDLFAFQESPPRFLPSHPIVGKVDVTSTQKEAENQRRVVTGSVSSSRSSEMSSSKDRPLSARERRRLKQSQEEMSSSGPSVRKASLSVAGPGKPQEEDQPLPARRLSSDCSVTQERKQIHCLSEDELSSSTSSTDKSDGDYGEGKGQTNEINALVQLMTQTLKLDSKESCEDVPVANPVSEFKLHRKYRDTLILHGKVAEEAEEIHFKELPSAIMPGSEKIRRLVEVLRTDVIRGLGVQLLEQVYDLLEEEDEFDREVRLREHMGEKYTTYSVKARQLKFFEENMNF

COc1ccc2c(O[C@@H]3C[C@H]4C(=O)N[C@]5(C(=O)O)CC5/C=C\CCCCC[C@H](NC(=O)OC5CCCC5)C(=O)N4C3)cc(-c3csc(NC(=O)C(C)C)n3)nc2c1C (some centres not stated) [BI 1230]
residual activity [1]: 98%
residual activity [2]: 91%
residual activity [3]: 97%
residual activity [4]: 63%
residual activity [5]: 98%
residual activity [6]: 100%
residual activity [7]: 88%
residual activity [8]: 50%
residual activity [9]: 58%
residual activity [10]: 79%
residual activity [11]: 74%
residual activity [12]: 91%
residual activity [13]: 94%
inhibition [14]: 28%
residual activity [15]: 89%
residual activity [16]: 100%
residual activity [17]: 68%
residual activity [18]: 76%
residual activity [19]: 76%
residual activity [20]: 76%
residual activity [21]: 100%
inhibition [22]: 3.22%
residual activity [23]: 79%
residual activity [24]: 99%
residual activity [25]: 71%
inhibition [26]: 16.6%
residual activity [27]: 100%
residual activity [28]: 92%
residual activity [29]: 90%
residual activity [30]: 83%
residual activity [31]: 90%
residual activity [32]: 100%
residual activity [33]: 87%
residual activity [34]: 96%
residual activity [35]: 100%
residual activity [36]: 93%
residual activity [37]: 100%
residual activity [38]: 75%
residual activity [39]: 71%
residual activity [40]: 93%
residual activity [41]: 98%
residual activity [42]: 81%
IC50 (NS3 protease): 6.7 nM (active)
residual activity [43]: 82%
residual activity [44]: 100%
residual activity [45]: 83%

O=C(N[C@H]1CCCCC/C=C\C2C[C@@]2(C(=O)O)NC(=O)[C@@H]2C[C@@H](Oc3ccncc3)CN2C1=O)OC1CCCC1 (some centres not stated) [BI 1675]
residual activity [1]: 96%
residual activity [2]: 100%
residual activity [3]: 100%
residual activity [4]: 100%
residual activity [5]: 100%
residual activity [6]: 88%
residual activity [7]: 69%
residual activity [8]: 97%
residual activity [9]: 100%
residual activity [10]: 81%
residual activity [11]: 85%
residual activity [12]: 89%
residual activity [13]: 88%
inhibition [14]: 18.5%
residual activity [15]: 72%
residual activity [16]: 75%
residual activity [17]: 100%
residual activity [18]: 100%
residual activity [19]: 96%
residual activity [20]: 63%
residual activity [21]: 90%
inhibition [22]: -1.71%
residual activity [23]: 100%
residual activity [24]: 97%
residual activity [25]: 88%
inhibition [26]: -8.64%
residual activity [27]: 94%
residual activity [28]: 100%
residual activity [29]: 91%
residual activity [30]: 89%
residual activity [31]: 91%
residual activity [32]: 100%
residual activity [33]: 100%
residual activity [34]: 100%
residual activity [35]: 100%
residual activity [36]: 94%
residual activity [37]: 100%
residual activity [38]: 100%
residual activity [39]: 95%
residual activity [40]: 79%
residual activity [41]: 87%
residual activity [42]: 86%
IC50 (NS3 protease): 4870 nM (not active)
residual activity [43]: 75%
residual activity [44]: 64%
residual activity [45]: 78%
